Data from the supplement of paper PMC11208160.

test: recombinant barcode read abundance after kanamycin selection (control-corrected) (log10(CPM+1)); higher = more efficient recombination; sequences stand for … in AGTGCAGAGAAAATCGGCCAGTTTTCTCTGCCTGCAGTCCGCATGCCGT…AGATTTATGCAGCGGACTGCCTTTCTCCCAAAGTGATAAACCGGACAGTATCATGGACCGGTTTTCCCGGTAATCCGTATTTGCAAGGTTGGTTTCACT; site = the 11-nt target
Summary of the method: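 Duplicate cultures were plated either on chloramphenicol/ampicillin LB agar, serving as control, or on chloramphenicol/ampicillin/kanamycin with 0.1 mM IPTG. These came from a pooled E. coli library co-electroporated with a donor plasmid, each member pairing a target with an IS621 bridge RNA target-binding loop. Recombination efficiency equals averaged, control-corrected counts per million of recombinant-junction barcodes. It is listed as log10(CPM+1).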
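Further: IS621 recombinase and bridge RNA in Escherichia coli cells.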

Row | Sequence | recombinant barcode read abundance (log10)
1 | TAGAATCCTTGGGTTCTAACCTGTTGCAT (site TAGAATCCTGT) | 0.0579
2 | TAGAATCCTTGGGTTCTAACCTGTTGCAT (site TAGAATCCTTT) | 0.241
3 | TAGAATGCTTGGGTTCTAACCTGTTGCCT (site TAGAATGCTAA) | 0.133
4 | TAGAATGCTTGGGTTCTAACCTGTTGCCT (site TAGAATGCTAG) | 0.921
5 | TAGACATCTTGGGTTCTAACCTGTTGCTC (site TAGACATCTGA) | 0.323
6 | TAGACATCTTGGGTTCTAACCTGTTGCTC (site TAGCCATCTGA) | 0.0147
7 | TAGACATCTTGGGTTCTAACCTGTTGCTC (site TAGGCATCTGA) | 0.0149
8 | TAGACATCTTGGGTTCTAACCTGTTGCTC (site TAGTCATCTGA) | 0.016
9 | TAGACCTCTTGGGTTCTAACCTGTTGCCT (site AAGACCTCTAG) | 0.113
10 | TAGACCTCTTGGGTTCTAACCTGTTGCCT (site TAGACCTCTAG) | 1.86
11 | TAGACTACTTGGGTTCTAACCTGTTGCTT (site TAGACTACTAA) | 0.0704
12 | TAGACTACTTGGGTTCTAACCTGTTGCTT (site TAGACTACTCA) | 0.0933
13 | TAGACTACTTGGGTTCTAACCTGTTGCTT (site TAGACTACTGA) | 0.0122
14 | TAGACTACTTGGGTTCTAACCTGTTGCTT (site TAGACTACTTA) | 0.137
15 | TAGACTGCTTGGGTTCTAACCTGTTGCCT (site TAGACTGCTAG) | 1.04
16 | TAGACTGCTTGGGTTCTAACCTGTTGCCT (site TAGCCTGCTAG) | 0.224
17 | TAGACTGCTTGGGTTCTAACCTGTTGCCT (site TAGGCTGCTAG) | 0.107
18 | TAGACTGCTTGGGTTCTAACCTGTTGCCT (site TAGTCTGCTAG) | 0.451
19 | TAGAGGACTTGGGTTCTAACCTGTTGCAG (site TACAGGACTCT) | 0.0593
20 | TAGAGGACTTGGGTTCTAACCTGTTGCAG (site TAGAGGACTCT) | 2.23
21 | TAGATCGCTTGGGTTCTAACCTGTTGCAG (site TAGATCGCTCT) | 1.44
22 | TAGATCGCTTGGGTTCTAACCTGTTGCAG (site TAGGTCGCTAT) | 0.266

Row | Sequence | recombinant barcode read abundance (log10)
23 | TAGCACACTTGGGTTCTAACCTGTTGCCG (site TAGCACACTCG) | 1.51
24 | TAGCACACTTGGGTTCTAACCTGTTGCCG (site TCGCACACTCA) | 0.0962
25 | TAGCACCCTTGGGTTCTAACCTGTTGCCC (site TAGCACCCTAG) | 0.681
26 | TAGCACCCTTGGGTTCTAACCTGTTGCCC (site TAGCACCCTCG) | 0.642
27 | TAGCACCCTTGGGTTCTAACCTGTTGCCC (site TAGCACCCTGG) | 1.69
28 | TAGCACCCTTGGGTTCTAACCTGTTGCCC (site TAGCACCCTTG) | 0.0312
29 | TAGCAGACTTGGGTTCTAACCTGTTGCCT (site TAGCAGACTAG) | 1.45
30 | TAGCAGACTTGGGTTCTAACCTGTTGCCT (site TAGCCGACTAG) | 0.034
31 | TAGCAGACTTGGGTTCTAACCTGTTGCCT (site TAGCGGACTAG) | 0.0243
32 | TAGCAGACTTGGGTTCTAACCTGTTGCCT (site TAGCTGACTAG) | 0.0224
33 | TAGCATACTTGGGTTCTAACCTGTTGCCG (site TAGCATACTAG) | 0.271
34 | TAGCATACTTGGGTTCTAACCTGTTGCCG (site TAGCATACTCG) | 0.861
35 | TAGCATACTTGGGTTCTAACCTGTTGCCG (site TAGCATACTGG) | 0.06
36 | TAGCATACTTGGGTTCTAACCTGTTGCCG (site TAGCATACTTG) | 0.198
37 | TAGCCACCTTGGGTTCTAACCTGTTGCCT (site AAGCCACCTAG) | 0.151
38 | TAGCCACCTTGGGTTCTAACCTGTTGCCT (site CAGCCACCTAG) | 0.917
39 | TAGCCACCTTGGGTTCTAACCTGTTGCCT (site GAGCCACCTAG) | 0.0875
40 | TAGCCACCTTGGGTTCTAACCTGTTGCCT (site TAGCCACCTAG) | 1.94
41 | TAGCCGACTTGGGTTCTAACCTGTTGCCT (site TAGCAGACTAG) | 0.181
42 | TAGCCGACTTGGGTTCTAACCTGTTGCCT (site TAGCCGACTAG) | 1.59
43 | TAGCCGACTTGGGTTCTAACCTGTTGCCT (site TAGCGGACTAG) | 0.251
44 | TAGCCGACTTGGGTTCTAACCTGTTGCCT (site TAGCTGACTAG) | 0.0182

Row | Sequence | recombinant barcode read abundance (log10)
45 | TAGCCGACTTGGGTTCTAACCTGTTGCTT (site TAGACGACTAA) | 0.131
46 | TAGCCGACTTGGGTTCTAACCTGTTGCTT (site TAGCCGACTAA) | 0.999
47 | TAGCCGACTTGGGTTCTAACCTGTTGCTT (site TAGGCGACTAA) | 0.309
48 | TAGCCGACTTGGGTTCTAACCTGTTGCTT (site TAGTCGACTAA) | 0.242
49 | TAGCCGTCTTGGGTTCTAACCTGTTGCAC (site TAGACGACTGT) | 0.0911
50 | TAGCCGTCTTGGGTTCTAACCTGTTGCAC (site TAGCCGTCTGT) | 1.4
51 | TAGCCTTCTTGGGTTCTAACCTGTTGCTG (site TAGCCTTCTCA) | 1.02
52 | TAGCCTTCTTGGGTTCTAACCTGTTGCTG (site TAGCCTTCTTA) | 0.252
53 | TAGCTAGCTTGGGTTCTAACCTGTTGCGT (site GCTTACCCTTA) | 0.0618
54 | TAGCTAGCTTGGGTTCTAACCTGTTGCGT (site TAGCTAGCTAC) | 1.62
55 | TAGCTCACTTGGGTTCTAACCTGTTGCAT (site TAGATCACTAT) | 0.0546
56 | TAGCTCACTTGGGTTCTAACCTGTTGCAT (site TAGCTCACTAT) | 1.17
57 | TAGCTCACTTGGGTTCTAACCTGTTGCAT (site TAGGTCACTAT) | 0.181
58 | TAGCTCACTTGGGTTCTAACCTGTTGCAT (site TAGTTCACTAT) | 0.307
59 | TAGGAACCTTGGGTTCTAACCTGTTGCCT (site AAGGAACCTAG) | 0.7
60 | TAGGAACCTTGGGTTCTAACCTGTTGCCT (site CAGGAACCTAG) | 0.649
61 | TAGGAACCTTGGGTTCTAACCTGTTGCCT (site GAGGAACCTAG) | 0.0651
62 | TAGGAACCTTGGGTTCTAACCTGTTGCCT (site TAGGAACCTAG) | 2.63
63 | TAGGACACTTGGGTTCTAACCTGTTGCCA (site TAGGACACTTG) | 1.86
64 | TAGGACACTTGGGTTCTAACCTGTTGCCA (site TCGGATACTTG) | 0.198
65 | TAGGACACTTGGGTTCTAACCTGTTGCGT (site TAGGAAACTAC) | 0.378
66 | TAGGACACTTGGGTTCTAACCTGTTGCGT (site TAGGACACTAC) | 2.8

Row | Sequence | recombinant barcode read abundance (log10)
67 | TAGGACACTTGGGTTCTAACCTGTTGCGT (site TAGGAGACTAC) | 0.1
68 | TAGGACACTTGGGTTCTAACCTGTTGCGT (site TAGGATACTAC) | 0.295
69 | TAGGACGCTTGGGTTCTAACCTGTTGCCT (site TAAGACGCTAG) | 1.76
70 | TAGGACGCTTGGGTTCTAACCTGTTGCCT (site TACGACGCTAG) | 0.114
71 | TAGGACGCTTGGGTTCTAACCTGTTGCCT (site TAGGACGCTAG) | 2.53
72 | TAGGACGCTTGGGTTCTAACCTGTTGCCT (site TATGACGCTAG) | 0.286
73 | TAGGATGCTTGGGTTCTAACCTGTTGCGT (site TAGGATGCTAC) | 2.66
74 | TAGGATGCTTGGGTTCTAACCTGTTGCGT (site TAGGATTCTAC) | 0.248
75 | TAGGCCACTTGGGTTCTAACCTGTTGCAT (site TAGGCCACTAA) | 0.071
76 | TAGGCCACTTGGGTTCTAACCTGTTGCAT (site TAGGCCACTAC) | 0.0809
77 | TAGGCCACTTGGGTTCTAACCTGTTGCAT (site TAGGCCACTAG) | 0.294
78 | TAGGCCACTTGGGTTCTAACCTGTTGCAT (site TAGGCCACTAT) | 1.39
79 | TAGGCCACTTGGGTTCTAACCTGTTGCGT (site TAGGCCACTAA) | 0.522
80 | TAGGCCACTTGGGTTCTAACCTGTTGCGT (site TAGGCCACTAC) | 2.85
81 | TAGGCCACTTGGGTTCTAACCTGTTGCGT (site TAGGCCACTAG) | 0.0599
82 | TAGGCCACTTGGGTTCTAACCTGTTGCGT (site TAGGCCACTAT) | 1.7
83 | TAGGCGCCTTGGGTTCTAACCTGTTGCTT (site TAGGCGCCTAA) | 1.03
84 | TAGGCGCCTTGGGTTCTAACCTGTTGCTT (site TAGGCGCCTAC) | 0.263
85 | TAGGCGCCTTGGGTTCTAACCTGTTGCTT (site TAGGCGCCTAG) | 0.193
86 | TAGGCGCCTTGGGTTCTAACCTGTTGCTT (site TAGGCGCCTAT) | 0.0771
